Laboratory results reported in patent publication US20250082656A1, “DOSAGE REGIMENS FOR TREATMENT OF DENGUE INFECTION” (Atea Pharmaceuticals, Inc., priority 2022, published 2025).
Where two headings read alike, the source gives them in different places.

Key:
[1] = steady-state, human plasma; for AUCtau / Cmax: mean±SD; for Tmax: median (minimum-maximum)
[2] = Plasma PK after single oral dose of AT-752, mice; details: Mouse, single oral AT-752 420 mg/kg
[3] = Pharmacokinetic study in SAD cohorts; assay type: in vivo, human; details: for dose proportionality of plasma exposure: dose range 250 to 1500 mg; for Urine Elimination: following single oral administration of Compound 2 at 250 to 1500 mg; for AUCInf / Cmax / T1/2 / Tmax: human plasma; for CLR: human
Method: (§1) Pharmacokinetic measurements for FIGS. 11, 12, 13, 14, and 15 were analyzed using LC-MS/MS according to the protocol described herein. Plasma samples were prepared for MS analysis by adding internal standards and extracting with 20 volumes chilled ACN. After vortex (800 rpm for 10 min) and centrifugation (4,000 rpm, 15 min, 4° C.), the supernatants (25 μL) were diluted with an equal volume of H2O, mixed and spun again. After adding internal standards, the PBMC samples (10^6 cells) were lyzed with 300 μL MeOH/H2O (70:30, v/v) and 40 mM dibutylammonium acetate (DBAA), mixed by vortex and centrifuged (12,000 rpm, 15 min, 4° C.). Aliquots of the supernatants (35 μL) were dried under nitrogen and reconstituted in H2O, then mixed and spun again. […] A binary nonlinear gradient with mobile phases A (0.1% formic acid in water) and B (0.1% formic acid in ACN) were used to elute samples at 0.8 mL/min, with a run time of 5 min. […] A binary nonlinear gradient with mobile phases A (0.001% NHr H2O, 0.18 mM DBAA in H2O) and B (10 mM N,N-dimethyl-hexylamine, 3 mM NH4OAc in ACN/H2O (50.50, v/v)) were used to elute samples at 0.5 mL/min, with a run time of 3 min. Standards in 50% MeOH were used for calibration. […] Internal standards (ISS) as described previously (Good et al., Preclinical evaluation of AT-527, a novel guanosine nucleotide prodrug with potent, pan-genotypic activity against hepatitis C virus. PLos One 15:e02271045) were used to correct for variations in recovery.
(§2) Data analysis of the pharmacokinetic data generated according to Example 21 and presented in FIGS. 11, 12, 13, 14, and 15 was analyzed according to the procedure described herein. Plasma concentrations of Compound 1 (AT-281), Compound 3 (AT-551) and Compound 6 (AT-273) were subjected to non-compartmental pharmacokinetic analysis using Phoenix WinNonlin software (version 6.3 or above, Pharsight, Mountain View, CA). The linear/log trapezoidal rule was applied in obtaining the PK parameters.

[4] = Plasma PK after single oral dose of AT-752, rats; assay type: in vivo, SD rats; details: Rat, single oral AT-752 300 mg/kg, plasma
Method: (§3) Male SD rats were administered 300 mg/kg Compound 2 (AT-752). Blood samples were collected up to 24 hrs. post dose, plasma separated and analyzed for Compound 1 (AT-281), Compound 3 (AT-551), and Compound 6 (AT-273) by LC-MS/MS. Data are express as mean+/−SD (n=3-5/time point). The x-axis is time post the dose measured in hours and the y-axis is the plasma concentration of the metabolites measured in nanomoles/mL). The experimental procedure is provided in Example 14.
Male naïve SD rats (Beijing Vital River Laboratory Animals Co. Ltd., China) were administered a dose of AT-752 at 300 mg/kg in 40% PEG400, 10% solutol HS15, 50% 100 mM citrate buffer, pH 4.5 (v/v) by oral gavage. Blood samples (n=4) were collected at 1, 2, 4, 8, 12 and 24 h post-dose, plasma separated and stored at −70° C. […] For PBMCs, nine male naïve SD rats were administered a dose of Compound 2 (AT-752) (at a Compound 1 (AT-281) equivalent dose of 300 mg/kg) by oral gavage.
as §1, §2

[5] = Plasma PK after single oral dose of AT-752, monkeys; assay type: in vivo, cynomolgus monkeys; details: Monkey, single oral AT-752 300 mg/kg, plasma
Method: as §3, with “cynomolgus monkeys” for “SD rats”
Male non-naïve cynomolgus monkeys (Hainan Jingang Laboratory Animal Co. Ltd., China), at least 2 kg body weight, were individually housed during the study in stainless steel mesh cages, provided ad libitum access to RO water, fed twice daily (except on the day of dosing when they were fed once) with ˜60 g Certified Monkey Diet each feed (Beijing Vital Keao Feed Co., Ltd., Beijing, China) and given daily treats of fresh fruit. They (n=5) were administered a dose of Compound 2 (AT-752) at 300 mg/kg in 40% PEG400, 10% solutol HS15, 50% 100 mM citrate buffer, pH 4.5 (v/v) by oral gavage, and blood samples (˜0.5 mL) were collected at 1, 2, 4, 8, 12 and 24 h post dose. Plasma was separated at each time point for pharmacokinetics, and stored at −70° C. […] Separately, three monkeys were given an oral dose of Compound 2 (AT-752) as powder in capsules at 60 mg/kg ([…] (AT-281) equivalent dose of 55 mg/kg), and blood samples collected at 12, 24 and 48 h post dose.
as §1, §2

[6] = single oral Compound 2 250 mg, fasting
[7] = single oral Compound 2 500 mg, fasting
[8] = single oral Compound 2 500 mg, fed
[9] = single oral Compound 2 500 mg, fed (high-fat/high-calorie meal)
[10] = single oral Compound 2 1000 mg, South/Southeast/East Asian origin
[11] = single oral Compound 2 1000 mg, fasting
[12] = single oral Compound 2 1000 mg, patients of South/Southeast/East Asian origin
[13] = single oral Compound 2 1500 mg, fasting

CNc1nc(N)nc2c1ncn2C1OC(COP(=O)(O)NC(C)C(=O)O)C(O)C1(C)F (stereo not drawn) [Compound 3]
AUCtau ([1]; Compound 2 750 mg BID): 1330 ± 503 ng·h/mL
Cmax ([1]; Compound 2 750 mg BID): 365 ± 159 ng/mL
Tmax ([1]; Compound 2 750 mg BID): 1.0 (0.8-2.0) h
AUCtau ([1]; Compound 2 750 mg TID): 944 ± 173 ng·h/mL
Cmax ([1]; Compound 2 750 mg TID): 245 ± 30 ng/mL
Tmax ([1]; Compound 2 750 mg TID): 1.5 (0.8-2.0) h
AUCtau ([1]; Compound 2 1000 mg QD): 1650 ± 498 ng·h/mL
Cmax ([1]; Compound 2 1000 mg QD): 392 ± 143 ng/mL
Tmax ([1]; Compound 2 1000 mg QD): 1.0 (0.8-2.0) h
AUC0-24 h [2]: 58.7 ± 13.3 nmol·h/mL
Cmax [2]: 45.1 ± 12 µM
Tmax [2]: 30 ± 0 min
dose proportionality of plasma exposure [3]: greater than dose-proportional manner
Urine Elimination [3]: < 1%
AUCInf [3, 6]: 302 ± 71 ng·h/mL
Cmax [3, 6]: 89 ± 36 ng/mL
T1/2 [3, 6]: 2.1 ± 0.3 h
Tmax [3, 6]: 1.0 (0.8-2.0) h
AUCInf [3, 7]: 898 ± 437 ng·h/mL
Cmax [3, 7]: 231 ± 155 ng/mL
T1/2 [3, 7]: 2.4 ± 0.5 h
Tmax [3, 7]: 1.0 (0.8-8.0) h
AUCInf [3, 8]: 737 ± 289 ng·h/mL
T1/2 [3, 8]: 2.3 ± 0.4 h
Tmax [3, 8]: 3.1 (3.0-4.0) h
Cmax [3, 9]: 154 ± 84 ng/mL
AUCInf [3, 10]: 3320 ± 1630 ng·h/mL
T1/2 [3, 10]: 2.0 ± 0.3 h
Tmax [3, 10]: 0.9 (0.5-2.0) h
AUCInf [3, 11]: 2330 ± 1060 ng·h/mL
Cmax [3, 11]: 695 ± 468 ng/mL
T1/2 [3, 11]: 2.2 ± 0.4 h
Tmax [3, 11]: 0.8 (0.5-2.0) h
Cmax [3, 12]: 895 ± 418 ng/mL
AUCInf [3, 13]: 4100 ± 494 ng·h/mL
Cmax [3, 13]: 1080 ± 217 ng/mL
T1/2 [3, 13]: 3.2 ± 1.2 h
Tmax [3, 13]: 1.5 (0.8-2.0) h
CLR [3, 6]: 2.0 ± 0.3 L/h
CLR [3, 7]: 2.1 ± 0.6 L/h
CLR [3, 8]: 2.1 ± 0.4 L/h
CLR [3, 10]: 2.1 ± 0.6 L/h
CLR [3, 11]: 2.1 ± 0.6 L/h
CLR [3, 13]: 1.9 ± 0.4 L/h
AUC0-24 h [4]: 56.5 nmol·h/mL
Cmax [4]: 16.5 ± 10.8 µM
AUC0-24 h [5]: 9.7 ± 2.2 nmol·h/mL
Cmax [5]: 2000 ± 800 nM
Tmax [5]: 2.0 ± 0.0 h

CNc1nc(N)nc2c1ncn2[C@@H]1O[C@H](CO)[C@@H](O)[C@@]1(C)F [Compound 7]
AUCtau ([1]; Compound 2 750 mg BID): 7960 ± 2970 ng·h/mL
Cmax ([1]; Compound 2 750 mg BID): 1470 ± 404 ng/mL
Tmax ([1]; Compound 2 750 mg BID): 1.5 (0.8-2.2) h
AUCtau ([1]; Compound 2 750 mg TID): 22300 ± 14100 ng·h/mL
Cmax ([1]; Compound 2 750 mg TID): 1600 ± 640 ng/mL
Tmax ([1]; Compound 2 750 mg TID): 1.5 (1.0-2.0) h
AUCtau ([1]; Compound 2 1000 mg QD): 8290 ± 2290 ng·h/mL
Cmax ([1]; Compound 2 1000 mg QD): 1200 ± 284 ng/mL
Tmax ([1]; Compound 2 1000 mg QD): 0.9 (0.8-2.0) h
dose proportionality of plasma exposure [3]: dose-proportional manner
Urine Elimination [3]: 10.7-17.9%
AUCInf [3, 6]: 2890 ± 680 ng·h/mL
Cmax [3, 6]: 446 ± 121 ng/mL
T1/2 [3, 6]: 16.9 ± 8.6 h
Tmax [3, 6]: 2.1 (2.0-3.0) h
AUCInf [3, 7]: 5480 ± 1630 ng·h/mL
Cmax [3, 7]: 765 ± 307 ng/mL
T1/2 [3, 7]: 15.1 ± 6.2 h
Tmax [3, 7]: 1.0 (0.8-4.0) h
AUCInf [3, 8]: 4310 ± 1400 ng·h/mL
T1/2 [3, 8]: 11.2 ± 4.9 h
Tmax [3, 8]: 4.0 (3.0-6.1) h
Cmax [3, 9]: 488 ± 324 ng/mL
AUCInf [3, 10]: 14000 ± 4210 ng·h/mL
T1/2 [3, 10]: 14.7 ± 10.1 h
Tmax [3, 10]: 1.5 (0.8-2.0) h
AUCInf [3, 11]: 10300 ± 3070 ng·h/mL
Cmax [3, 11]: 1640 ± 474 ng/mL
T1/2 [3, 11]: 12.4 ± 10.7 h
Tmax [3, 11]: 0.9 (0.8-3.0) h
Cmax [3, 12]: 2010 ± 489 ng/mL
AUCInf [3, 13]: 16700 ± 3780 ng·h/mL
Cmax [3, 13]: 2030 ± 600 ng/mL
T1/2 [3, 13]: 12.5 ± 3.8 h
Tmax [3, 13]: 2.0 (1.0-2.0) h
CLR [3, 6]: 13.7 ± 1.6 L/h
CLR [3, 7]: 13.6 ± 5.4 L/h
CLR [3, 8]: 12.5 ± 2.8 L/h
CLR [3, 10]: 13.4 ± 2.5 L/h
CLR [3, 11]: 14.2 ± 3.8 L/h
CLR [3, 13]: 15.0 ± 2.4 L/h
